This is an account of results in PubChem BioAssay AID588375 (Sanford-Burnham Center for Chemical Genomics, 2011).

Activity calls are given as the source filed them.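 Rule for the calls: active = IC50 below 100 µM in the TR-FRET assay, unless also active in the caspase-3 counter assay; inactive = the rest, including compounds also active in caspase-3.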

The target in this assay is Caspase-3 (Homo sapiens) (UniProt P42574). The assay can be described thus: caspase-3 inhibitors as false-positive filter, SAR follow-up, counter-screen for UBC13 polyubiquitin inhibitor project, biochemical, luminescence, Caspase-Glo 3/7, set 2 (AID 588375). To be noted: recombinant caspase-3, Caspase-Glo luminescence, 60 min.
Caspase-3 (Homo sapiens), sequence (P42574 whole entry, looked up): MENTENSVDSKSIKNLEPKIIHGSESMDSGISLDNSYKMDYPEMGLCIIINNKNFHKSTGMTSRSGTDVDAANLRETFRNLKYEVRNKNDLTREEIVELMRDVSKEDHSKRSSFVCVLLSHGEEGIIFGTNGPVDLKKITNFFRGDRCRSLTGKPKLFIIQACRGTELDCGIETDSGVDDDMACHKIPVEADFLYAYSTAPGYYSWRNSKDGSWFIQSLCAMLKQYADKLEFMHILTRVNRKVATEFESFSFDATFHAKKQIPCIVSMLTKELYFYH
For `O=C(NCCCN1CCN(c2ccccc2)CC1)C1CCCN(c2ncnc3c2nc2n3CCCCC2)C1` (configuration not stated), the IC50 was > 100 µM (inactive).
The result for `COC(=O)c1c(NC(=O)C(=O)NCC2CCCO2)sc2c1CC(C)(C)OC2` (configuration not stated) reads > 100 µM (inactive); that for `O=C(NCCCN1CCN(c2ccc(F)cc2)CC1)C1CCCN(c2ncnc3c2nc2n3CCCCC2)C1` (configuration not stated), > 100 µM (inactive).
To `O=C(CN1CCC(n2c(C(F)(F)F)nc3cc(F)ccc32)CC1)Nc1ccc2c(c1)OCO2` belongs > 100 µM (inactive); to `O=C(c1ccco1)N1CCN(C(=O)C2CCN(c3ncnc4c3nc3n4CCCCC3)CC2)CC1`, > 100 µM (inactive).
To `O=C(C1CCN(c2ncnc3c2nc2n3CCCCC2)CC1)N1CCN(Cc2ccccc2)CC1` belongs > 100 µM (inactive); to `CC1(C)Cc2c(sc(NC(=O)C(=O)NCC3CCCO3)c2C(=O)O)CO1` (configuration not stated), > 100 µM (inactive).
As to `CC1(C)Cc2c(sc(NC(=O)C(=O)N3CCCC3)c2C(N)=O)CO1`, the IC50 was > 100 µM (inactive).
To `O=C(CN1CCC(n2cnc3cc(F)ccc32)CC1)Nc1ccccc1Br` belongs > 100 µM (inactive); to `COc1ccccc1N1CCN(CCCNC(=O)C2CCCN(c3ncnc4c3nc3n4CCCCC3)C2)CC1` (configuration not stated), > 100 µM (inactive).
To `CC1(C)Cc2c(sc(NC(=O)C(=O)NCC3CCCO3)c2C(N)=O)CO1` (configuration not stated) belongs > 100 µM (inactive); to `COc1ccc(NC(=O)CN2CCC(n3c(C)nc4cc(F)ccc43)CC2)c(OC)c1`, > 100 µM (inactive); to `COc1ccc(OC)c(NC(=O)CN2CCC(n3cnc4cc(F)ccc43)CC2)c1`, > 100 µM (inactive).
Take `Cc1cccc(N2CCN(CCCNC(=O)C3CCCN(c4ncnc5c4nc4n5CCCCC4)C3)CC2C)c1` (configuration not stated): the IC50 was > 100 µM (inactive).
On to `Cc1ccc(C)c(N2CCN(CCCNC(=O)C3CCCN(c4ncnc5c4nc4n5CCCCC4)C3)CC2)c1` (configuration not stated), for which the IC50 is > 100 µM (inactive).
To `O=C(C1CCN(c2ncnc3c2nc2n3CCCCC2)CC1)N1CCN(c2ncccn2)CC1` belongs > 100 µM (inactive); to `CC1(C)Cc2c(sc(NC(=O)C(=O)NCCN3CCOCC3)c2C(N)=O)CO1`, > 100 µM (inactive); to `Cc1cccc(NC(=O)CN2CCC(n3cnc4cc(F)ccc43)CC2)c1C`, > 100 µM (inactive).
The result for `Cc1nc2cc(F)ccc2n1C1CCN(CC(=O)Nc2ccccc2)CC1` reads > 100 µM (inactive); that for `O=C(CN1CCC(n2cnc3cc(C(F)(F)F)ccc32)CC1)Nc1ccc2c(c1)OCCO2`, > 100 µM (inactive).
The result for `CCOc1ccc(NC(=O)CN2CCC(n3cnc4cc(F)ccc43)CC2)cc1` reads > 100 µM (inactive); that for `CCOc1ccccc1NC(=O)CN1CCC(n2cnc3cc(F)ccc32)CC1`, > 100 µM (inactive).
For `COc1ccc(OC)c(NC(=O)CN2CCC(n3c(C)nc4cc(F)ccc43)CC2)c1`, the IC50 was > 100 µM (inactive).
In the case of `O=C(CN1CCC(n2cnc3cc(F)ccc32)CC1)Nc1cccc(C(F)(F)F)c1`, the IC50 is > 100 µM (inactive).
The result for `O=C(C1CCN(c2ncnc3c2nc2n3CCCCC2)CC1)N1CCN(c2ccccn2)CC1` reads > 100 µM (inactive).
In the case of `Cc1nc2ccccc2n1C1CCN(CC(=O)Nc2ccccc2Oc2ccccc2)CC1`, the IC50 is > 100 µM (inactive).
Regarding `O=C(C1CCN(c2ncnc3c2nc2n3CCCCC2)CC1)N1CCN(c2ccc(F)cc2)CC1`, the IC50 was > 100 µM (inactive).
